# From patent EP0497303B1, “Carbamic acid derivatives and method for preparing the same” (KYORIN PHARMACEUTICAL CO., LTD., priority 1991, dated 1992)
# Tested on: amnesia induced by exposure to carbon dioxide gas
# Assay: Action against amnesia induced by exposure to carbon dioxide gas (step-through passive avoidance)
# Type: in vivo, Std: ddy strain male mice
# Conditions: for Reaction latency(sec) Mean±S.E: orally immediately after exposure to carbon dioxide gas and one hour before retention trial, retention trial after 24 hours, maximum 300 seconds; for Rate of improvement (%): orally, relative to CO2 treated and non-treated groups
# Description: The apparatus used was a passive avoidance apparatus of a step-through type (made by O'Hara Co., Ltd.). In the aquisition trial, each mouse was placed in the light compartment, a guillotine door of partition thereof was opened after 10 seconds, the guillotine door was closed as soon as the mouse moved into the dark compartment and an electric shock of 33 - 50 v was given for 1 second through the metal grid bars of the floor. Immediately after the electric shock was given, the mouse was taken out and was accommodated in a container having volume of ca. 300 ml filled with carbon dioxide gas. After immediately exposed to carbon dioxide gas having flow rate of ca. 5 liter/min. for 25 - 45 seconds, the mouse was taken out and was reanimated by artificial breathing. The retention trial was carried out after 24 hours. In the retention trial, the mouse was again placed in the light compartment, the time till the movement to the dark compartment was measured as a reaction latency until maximum 300 seconds and the mouse showing latency beyond it was deemed as 300 seconds. In addition, immediately after aquisition trial, a group not to exposed to carbon dioxide gas (comparison group of non-amnesia) was also made. The mouse was grouped per 10 - 30, the subject medicament was orally administered immediately after exposed to carbon dioxide gas and one hour before the retention trial. Rate of improvement =(Latency of CO2 -drug treated group - Latency of carbon dioxide exposed group)/(Latency of non-dementia group - Latency of carbon dioxide exposed group)x 100 [formula]
structure (smiles),measurement,setting,value
COC(=O)C1=C(C)NC(C)=C(C(=O)OCCN(C)Cc2ccccc2)C1c1cccc([N+](=O)[O-])c1 (centres unmarked) [Nicardipine],Reaction latency(sec) Mean±S.E,Dose 5 mg/kg,92.9 ± 28.1 s
same,Rate of improvement (%),Dose 5 mg/kg,-59.8%
O=C(Nc1ccc(Cl)cc1)OC1CCCN(c2ccncc2)C1 (centres unmarked) [Example 49],Reaction latency(sec) Mean±S.E,Dose 10 mg/kg,154.0 ± 27.2 s
same,Reaction latency(sec) Mean±S.E,Dose 30 mg/kg,183.7 ± 26.3 s
same,Rate of improvement (%),Dose 30 mg/kg,45.3%
C1=Cc2cccc(OCC3CNCCO3)c2C1 (centres unmarked) [Indeloxazine],Reaction latency(sec) Mean±S.E,Dose 40 mg/kg,219.3 ± 17.8 s
same,Rate of improvement (%),Dose 40 mg/kg,30.1%
same,improving activity to disturbance of memory,summary in words of Table 1,vitiated or not enough
"CN1CCCC(OC(=O)Nc2ccccc2)C1 (centres unmarked) [Compound A, 3-(1-methylpiperidinyl) phenylcarbamate]",Reaction latency(sec) Mean±S.E,Dose 100 mg/kg,175.3 ± 36.7 s
same,Rate of improvement (%),Dose 100 mg/kg,15.2%
O=C(Nc1ccc(Cl)cc1)OC1CCN(c2ccncc2)CC1 [Example 2],Reaction latency(sec) Mean±S.E,Dose 10 mg/kg,150.7 ± 27.1 s
same,Rate of improvement (%),Dose 10 mg/kg,42.9%
same,Reaction latency(sec) Mean±S.E,Dose 30 mg/kg,231.2 ± 19.0 s
same,Rate of improvement (%),Dose 30 mg/kg,76.8%
